Experimental data: patent US7345035B2, “Treatment of osteoporosis and autoimmune disease with astrogorgiadiol” (University of Delaware, priority 2003, dated 2008)

Tests used:
[1] = tested on: osteopontin mRNA; assay: Northern blot of osteopontin mRNA in ROS 17/2.8 cells; type: cell-based
Description: Changes in levels of mRNA encoding osteopontin induced by astrogorgiadiol were studied by Northern blot. Northern blot analysis was performed as described in Farach-Carson American Journal of Physiology 265: F705-F711 (1993), modified to include varying concentrations of astrogorgiadiol.
Briefly, […] cells were treated with 1 nM 1, 25 (OH)2vitD3 (BIOMOL Research Laboratories Inc., Plymouth Meeting, Pa.) or 1 nM 1, 25 (OH)2 vitD3 and 3 nM, 30 nM or 300 nM astrogorgiadiol for 0, 3 or 24 hours prior to harvest or with 3 nM, 30 nM or 300 nM astrogorgiadiol. mRNA was extracted using standard techniques. Osteopontin mRNA was detected using a ^32P-labeled osteopontin cDNA probe.

[2] = tested on: starfish eggs; settings: cited from earlier work

With `C=C1/C(=C\C=C2/CCC[C@]3(C)[C@@H]([C@H](C)CCCC(C)(C)O)CC[C@@H]23)C[C@@H](O)C[C@@H]1O` [1,25 (OH)2 vitD3, reference compound] the “osteopontin mRNA level (Northern blot)” value ([1]; ROS 17/2.8 cells, 1 nM 1,25 (OH)2 vitD3, 0, 3 or 24 hours prior to harvest) was “increased osteopontin mRNA”.

For `Cc1ccc(O)cc1CC[C@@H]1[C@H](O)CC[C@]2(C)[C@@H]([C@H](C)CCCC(C)C)CC[C@@H]12` [astrogorgiadiol, Astrogorgiadiol], the “1,25 (OH)2 vitD3-induced osteopontin mRNA level (Northern blot)” value ([1]; 3 nM astrogorgiadiol with 1 nM 1,25 (OH)2 vitD3, ROS 17/2.8 cells) was “decreased 1,25 (OH)2 vitD3-induced osteopontin mRNA to levels approaching control levels”, the “osteopontin mRNA level (Northern blot)” value ([1]; 30 nM astrogorgiadiol with 1 nM 1,25 (OH)2 vitD3, ROS 17/2.8 cells) was “decreased the level of osteopontin mRNA below control levels” and the “osteopontin mRNA level (Northern blot)” value ([1]; 300 nM astrogorgiadiol with 1 nM 1,25 (OH)2 vitD3, ROS 17/2.8 cells) was “decreased the level of osteopontin mRNA below control levels”. For the same molecule, the “osteopontin mRNA level (Northern blot), dose dependence” value ([1]; ROS 17/2.8 cells, 3 nM, 30 nM or 300 nM astrogorgiadiol, with 1 nM 1,25 (OH)2 vitD3) was “downregulated osteopontin mRNA in a dose-dependent manner”, the “concentration effective to downregulate osteopontin RNA production” value ([1]; in cells in vitro) was 3 to 300 nM and the “cell division of starfish eggs” value [2] was “inhibit cell division of starfish eggs”.
